{
  "source": "patent US10544150B2",
  "about": "“NK-3 receptor selective antagonist compounds, pharmaceutical composition and methods for use in NK-3 receptors mediated disorders” (Ogeda SA, priority 2010, dated 2020)",
  "target": "human NK-3 receptor (Homo sapiens (Human), UniProt P29371)",
  "sequence (P29371 whole entry)": "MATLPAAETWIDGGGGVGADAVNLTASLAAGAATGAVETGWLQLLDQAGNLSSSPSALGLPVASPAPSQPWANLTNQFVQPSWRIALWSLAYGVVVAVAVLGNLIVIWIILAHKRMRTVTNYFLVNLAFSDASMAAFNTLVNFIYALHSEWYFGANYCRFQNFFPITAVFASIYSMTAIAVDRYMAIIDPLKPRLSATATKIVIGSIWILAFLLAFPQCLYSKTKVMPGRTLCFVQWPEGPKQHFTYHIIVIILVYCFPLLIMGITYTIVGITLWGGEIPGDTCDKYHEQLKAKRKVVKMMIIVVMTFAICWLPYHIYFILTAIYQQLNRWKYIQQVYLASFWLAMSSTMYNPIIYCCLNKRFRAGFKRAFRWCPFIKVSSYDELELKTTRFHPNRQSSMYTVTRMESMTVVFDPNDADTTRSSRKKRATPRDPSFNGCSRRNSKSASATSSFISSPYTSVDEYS",
  "test": "3H-SB222200 binding competition assay with human NK-3 receptor",
  "conditions": "3H-SB222200 displacement, CHO cell membranes expressing human NK3 receptor; read-out: Ki range",
  "experimental": "The affinity of compounds of the invention for the tachykinin receptors was determined by measuring the ability of the compounds of the invention to displace a radiolabeled ligand from its specifics binding site.\n^3H-SB222200 Binding Competition Assay with Human NK-3 Receptor\nThe ability of the compounds of the invention to inhibit the binding of the NK-3 receptor selective antagonist SB222200 was assessed by an in vitro radioligand binding assay. Membranes were prepared from Chinese hamster ovary recombinant cells which express the human NK3 receptor. The membranes were incubated with 5 nM ^3H-SB222200_(ARC) in a HEPES 25 mM/NaCl 0.1M/CaCl2 1 mM/MgCl2 5 Mm/BSA 0.5%/Saponin 10 μg/ml buffer at pH 7.4 and various concentrations of the compounds of the invention. The amount of tritiated SB222200 bound to the receptor was determined after filtration by the quantification of membrane associated radioactivity using the TopCount-NXT reader (Packard). […] In Table 3 biological results obtained using the ^3H-SB222200 binding competition assay with compounds of the invention are set out in tabulated form. In this table the calculated Ki is given. The Ki value obtained (in accordance with the protocol set forth above) is represented as follows: “+++” means Ki<500 nM; “++” means 500 nM≤Ki≤1 μM; “+” means 1 μM<Ki≤5 μM; “#” means Ki>5 μM.",
  "data": [
    {"smiles": "C[C@H]1c2nnc(-c3nc(-c4ccc(F)cc4)no3)n2CCN1C(=O)c1ccc(-c2cccs2)cc1", "note": "[Compound 168, (S)-(3-(3-(4-fluorophenyl)-1,2,4-oxadiazol-5-yl)-8-methyl-5,6-dihydro-[1,2,4]triazolo[4,3-a]pyrazin-7(8H)-yl)(4-(thiophen-2-yl)phenyl)methanone]", "values": [
      {"measurement": "Ki", "value": "< 500", "unit": "nM"}
    ]},
    {"smiles": "O=C(c1ccc(-c2ccccc2)cc1)N1CCn2c(nnc2-c2csc(-c3cccs3)n2)C1", "note": "[Compound 195, [1,1′-biphenyl]-4-yl(3-(2-(thiophen-2-yl)thiazol-4-yl)-5,6-dihydro-[1,2,4]triazolo[4,3-a]pyrazin-7(8H)-yl)methanone]", "values": [
      {"measurement": "Ki", "value": "< 500", "unit": "nM"}
    ]},
    {"smiles": "CC1Cn2c(nnc2-c2csc(-c3ccc(F)cc3)n2)CN1C(=O)c1ccc(-c2cccs2)cc1", "note": "(centres unmarked) [Compound 107, (3-(2-(4-fluorophenyl)thiazol-4-yl)-6-methyl-5,6-dihydro-[1,2,4]triazolo[4,3-a]pyrazin-7(8H)-yl)(4-(thiophen-2-yl)phenyl)methanone]", "values": [
      {"measurement": "Ki", "value": "500 to 1000", "unit": "nM"}
    ]},
    {"smiles": "O=C(c1ccc(-c2ccccc2)cn1)N1CCn2c(nnc2-c2ccc3ccccc3n2)C1", "note": "[Compound 90, (5-phenylpyridin-2-yl)(3-(quinolin-2-yl)-5,6-dihydro-[1,2,4]triazolo[4,3-a]pyrazin-7(8H)-yl)methanone]", "values": [
      {"measurement": "Ki", "value": "< 500", "unit": "nM"}
    ]},
    {"smiles": "COCCn1nc(-c2ccccc2)cc1-c1nnc2n1CCN(C(=O)c1ccc(F)cc1)C2", "note": "[Compound 255, (4-fluorophenyl)(3-(1-(2-methoxyethyl)-3-phenyl-1H-pyrazol-5-yl)-5,6-dihydro-[1,2,4]triazolo[4,3-a]pyrazin-7(8H)-yl)methanone]", "values": [
      {"measurement": "Ki", "value": "500 to 1000", "unit": "nM"}
    ]},
    {"smiles": "CC(C)c1nc(-c2nnc3n2CCN(C(=O)c2ccc(F)cc2)C3)cs1", "note": "[Compound 208, (4-fluorophenyl)(3-(2-isopropylthiazol-4-yl)-5,6-dihydro-[1,2,4]triazolo[4,3-a]pyrazin-7(8H)-yl)methanone]", "values": [
      {"measurement": "Ki", "value": "1000 to 5000", "unit": "nM"}
    ]},
    {"smiles": "CC1(C)CCN(c2nc(-c3nnc4n3CCN(C(=O)c3ccc(-c5cccs5)cc3)C4)cs2)CC1", "note": "[Compound 274, (3-(2-(4,4-dimethylpiperidin-1-yl)thiazol-4-yl)-5,6-dihydro-[1,2,4]triazolo[4,3-a]pyrazin-7(8H)-yl)(4-(thiophen-2-yl)phenyl)methanone]", "values": [
      {"measurement": "Ki", "value": "500 to 1000", "unit": "nM"}
    ]},
    {"smiles": "O=C(c1ccc(F)cc1)N1CCn2c(nnc2-c2csc(N3CCCC3)n2)C1", "note": "[Compound 249, (4-fluorophenyl)(3-(2-(pyrrolidin-1-yl)thiazol-4-yl)-5,6-dihydro-[1,2,4]triazolo[4,3-a]pyrazin-7(8H)-yl)methanone]", "values": [
      {"measurement": "Ki", "value": "< 500", "unit": "nM"}
    ]},
    {"smiles": "O=C(c1ccc(-c2cccs2)cc1)N1CCn2c(nnc2-c2n[nH]c(-c3ccccc3)n2)C1", "note": "[Compound 179, (3-(5-phenyl-1H-1,2,4-triazol-3-yl)-5,6-dihydro-[1,2,4]triazolo[4,3-a]pyrazin-7(8H)-yl)(4-(thiophen-2-yl)phenyl)methanone]", "values": [
      {"measurement": "Ki", "value": "< 500", "unit": "nM"}
    ]},
    {"smiles": "Cn1nc(-c2ccc(Cl)c(Cl)c2)cc1C(=O)N1CCn2c(nnc2-c2ccccn2)C1", "note": "[Compound 14, (3-(3,4-dichlorophenyl)-1-methyl-1H-pyrazol-5-yl)(3-(pyridin-2-yl)-5,6-dihydro-[1,2,4]triazolo[4,3-a]pyrazin-7(8H)-yl)methanone]", "values": [
      {"measurement": "Ki", "value": "1000 to 5000", "unit": "nM"}
    ]},
    {"smiles": "O=C(c1cc(-c2ccc(Cl)c(Cl)c2)n[nH]1)N1CCn2c(nnc2-c2ccccn2)C1", "note": "[Compound 4, (3-(3,4-dichlorophenyl)-1H-pyrazol-5-yl)(3-(pyridin-2-yl)-5,6-dihydro-[1,2,4]triazolo[4,3-a]pyrazin-7(8H)-yl)methanone]", "values": [
      {"measurement": "Ki", "value": "1000 to 5000", "unit": "nM"}
    ]},
    {"smiles": "CC1c2nnc(-c3csc(N4CCOCC4)n3)n2CCN1C(=O)c1ccc(-c2ccc(F)cc2)cc1", "note": "(centres unmarked) [Compound 53, (4′-fluoro-[1,1′-biphenyl]-4-yl)(8-methyl-3-(2-morpholinothiazol-4-yl)-5,6-dihydro-[1,2,4]triazolo[4,3-a]pyrazin-7(8H)-yl)methanone]", "values": [
      {"measurement": "Ki", "value": "< 500", "unit": "nM"}
    ]},
    {"smiles": "C[C@@H]1c2nnc(-c3nc(-c4ccc(F)cc4)no3)n2CCN1C(=O)c1ccc(-c2cccs2)cc1", "note": "[Compound 169, (R)-(3-(3-(4-fluorophenyl)-1,2,4-oxadiazol-5-yl)-8-methyl-5,6-dihydro-[1,2,4]triazolo[4,3-a]pyrazin-7(8H)-yl)(4-(thiophen-2-yl)phenyl)methanone]", "values": [
      {"measurement": "Ki", "value": "< 500", "unit": "nM"}
    ]},
    {"smiles": "NCCOc1ccccc1-c1nc(-c2nnc3n2CCN(C(=O)c2ccc(-c4cccs4)cc2)C3)cs1", "note": "[Compound 282, (3-(2-(2-(2-aminoethoxy)phenyl)thiazol-4-yl)-5,6-dihydro-[1,2,4]triazolo[4,3-a]pyrazin-7(8H)-yl)(4-(thiophen-2-yl)phenyl)methanone]", "values": [
      {"measurement": "Ki", "value": "500 to 1000", "unit": "nM"}
    ]},
    {"smiles": "O=C(c1cc(-c2ccc(Cl)cc2)n[nH]1)N1CCn2c(nnc2-c2ccccn2)C1", "note": "[Compound 3, (3-(4-chlorophenyl)-1H-pyrazol-5-yl)(3-(pyridin-2-yl)-5,6-dihydro-[1,2,4]triazolo[4,3-a]pyrazin-7(8H)-yl)methanone]", "values": [
      {"measurement": "Ki", "value": "1000 to 5000", "unit": "nM"}
    ]},
    {"smiles": "O=C(c1ccc(-c2cccs2)cc1)N1CCn2c(nnc2-c2nc(-c3ccccc3)ns2)C1", "note": "[Compound 211, (3-(3-phenyl-1,2,4-thiadiazol-5-yl)-5,6-dihydro-[1,2,4]triazolo[4,3-a]pyrazin-7(8H)-yl)(4-(thiophen-2-yl)phenyl)methanone]", "values": [
      {"measurement": "Ki", "value": "< 500", "unit": "nM"}
    ]},
    {"smiles": "O=C(c1ccc(F)cc1)N1CCn2c(-c3csc(-c4ccccc4)n3)nnc2C1CCO", "note": "(centres unmarked) [Compound 51, (4-fluorophenyl)(8-(2-hydroxyethyl)-3-(2-phenylthiazol-4-yl)-5,6-dihydro-[1,2,4]triazolo[4,3-a]pyrazin-7(8H)-yl)methanone]", "values": [
      {"measurement": "Ki", "value": "< 500", "unit": "nM"}
    ]},
    {"smiles": "O=C(c1ccc(F)cc1)N1CCn2c(-c3csc(-c4ccccc4)n3)nnc2C1c1ccc(F)cc1", "note": "(centres unmarked) [Compound 41, (4-fluorophenyl)(8-(4-fluorophenyl)-3-(2-phenylthiazol-4-yl)-5,6-dihydro-[1,2,4]triazolo[4,3-a]pyrazin-7(8H)-yl)methanone]", "values": [
      {"measurement": "Ki", "value": "< 500", "unit": "nM"}
    ]},
    {"smiles": "O=C(c1ccc(F)cc1)N1CCn2c(nnc2-c2ccccn2)C1", "note": "[Compound 1, (4-fluorophenyl)(3-(pyridin-2-yl)-5,6-dihydro-[1,2,4]triazolo[4,3-a]pyrazin-7(8H)-yl)methanone]", "values": [
      {"measurement": "Ki", "value": "1000 to 5000", "unit": "nM"}
    ]},
    {"smiles": "O=C(c1ccc(F)cc1)N1CCn2c(nnc2-c2csc(-c3ccncc3)n2)C1", "note": "[Compound 218, (4-fluorophenyl)(3-(2-(pyridin-4-yl)thiazol-4-yl)-5,6-dihydro-[1,2,4]triazolo[4,3-a]pyrazin-7(8H)-yl)methanone]", "values": [
      {"measurement": "Ki", "value": "1000 to 5000", "unit": "nM"}
    ]},
    {"smiles": "O=C(c1ccc(-c2cccs2)cc1)N1CCn2c(nnc2-c2cc(-c3ccccc3)n(CCO)n2)C1", "note": "[Compound 285, (3-(1-(2-hydroxyethyl)-5-phenyl-1H-pyrazol-3-yl)-5,6-dihydro-[1,2,4]triazolo[4,3-a]pyrazin-7(8H)-yl)(4-(thiophen-2-yl)phenyl)methanone]", "values": [
      {"measurement": "Ki", "value": "< 500", "unit": "nM"}
    ]},
    {"smiles": "C[C@@H]1c2nnc(-c3ccc4ccccc4n3)n2CCN1C(=O)c1ccc(F)cc1", "note": "[Compound 115, (R)-(4-fluorophenyl)(8-methyl-3-(quinolin-2-yl)-5,6-dihydro-[1,2,4]triazolo[4,3-a]pyrazin-7(8H)-yl)methanone]", "values": [
      {"measurement": "Ki", "value": "< 500", "unit": "nM"}
    ]},
    {"smiles": "CC1CN(C(=O)c2ccc(-c3cccs3)cc2)Cc2nnc(-c3csc(-c4ccc(F)cc4)n3)n21", "note": "(centres unmarked) [Compound 108, (3-(2-(4-fluorophenyl)thiazol-4-yl)-5-methyl-5,6-dihydro-[1,2,4]triazolo[4,3-a]pyrazin-7(8H)-yl)(4-(thiophen-2-yl)phenyl)methanone]", "values": [
      {"measurement": "Ki", "value": "500 to 1000", "unit": "nM"}
    ]},
    {"smiles": "O=C(c1ccc(-c2ccc(F)cc2)cc1)N1CCn2c(nnc2-c2csc(Cn3cnc(Cl)c3Cl)n2)C1", "note": "[Compound 187, (3-(2-((4,5-dichloro-1H-imidazol-1-yl)methyl)thiazol-4-yl)-5,6-dihydro-[1,2,4]triazolo[4,3-a]pyrazin-7(8H)-yl)(4′-fluoro-[1,1′-biphenyl]-4-yl)methanone]", "values": [
      {"measurement": "Ki", "value": "1000 to 5000", "unit": "nM"}
    ]},
    {"smiles": "CC1CN(c2nc(-c3nnc4n3CCN(C(=O)c3ccc(-c5cccs5)cc3)C4)cs2)CC(C)O1", "note": "(centres unmarked) [Compound 265, (3-(2-(2,6-dimethylmorpholino)thiazol-4-yl)-5,6-dihydro-[1,2,4]triazolo[4,3-a]pyrazin-7(8H)-yl)(4-(thiophen-2-yl)phenyl)methanone]", "values": [
      {"measurement": "Ki", "value": "< 500", "unit": "nM"}
    ]},
    {"smiles": "O=C(c1ccc(F)cc1)N1CCn2c(nnc2-c2nc(-c3ccccc3)cs2)C1", "note": "[Compound 57, (4-fluorophenyl)(3-(4-phenylthiazol-2-yl)-5,6-dihydro-[1,2,4]triazolo[4,3-a]pyrazin-7(8H)-yl)methanone]", "values": [
      {"measurement": "Ki", "value": "< 500", "unit": "nM"}
    ]},
    {"smiles": "CC1c2nnc(-c3csc(-c4ccc(F)cc4)n3)n2CCN1C(=O)c1ccc(F)c(F)c1", "note": "(centres unmarked) [Compound 110, (3,4-difluorophenyl)(3-(2-(4-fluorophenyl)thiazol-4-yl)-8-methyl-5,6-dihydro-[1,2,4]triazolo[4,3-a]pyrazin-7(8H)-yl)methanone]", "values": [
      {"measurement": "Ki", "value": "< 500", "unit": "nM"}
    ]},
    {"smiles": "CN(C)c1ccc(-c2nc(-c3nnc4n3CCN(C(=O)c3ccc(-c5cccs5)cc3)C4)cs2)cc1", "note": "[Compound 229, (3-(2-(4-(dimethylamino)phenyl)thiazol-4-yl)-5,6-dihydro-[1,2,4]triazolo[4,3-a]pyrazin-7(8H)-yl)(4-(thiophen-2-yl)phenyl)methanone]", "values": [
      {"measurement": "Ki", "value": "< 500", "unit": "nM"}
    ]},
    {"smiles": "O=C(c1ccc(F)cc1)N1CCn2c(nnc2-c2csc(-c3ccc(N4CCOCC4)cc3)n2)C1", "note": "[Compound 240, (4-fluorophenyl)(3-(2-(4-morpholinophenyl)thiazol-4-yl)-5,6-dihydro-[1,2,4]triazolo[4,3-a]pyrazin-7(8H)-yl)methanone]", "values": [
      {"measurement": "Ki", "value": "500 to 1000", "unit": "nM"}
    ]}
  ]
}
